{"source": "patent US11786514B2", "about": "“Sustained release aminopyridine composition” (priority 2003, dated 2023)", "key": {"[1]": {"assay": "Single escalating dose pharmacokinetics and tolerability in patients with chronic incomplete SCI (Example 6)", "description": "Each patient was to receive each dose in an ascending fashion. Each dose was to be followed by a 7-day washout period. […] Patients were to continue their fast for 4 hours after dosing and then a standard meal was to be served. Blood samples for pharmacokinetic analysis were to be obtained at Hour 0 (immediately preceding study drug administration) and 1, 2, 3, 4, 5, 6, 8, 10, 12, 16, 20, and 24 hours after each dose. A baseline urine sample was to be collected prior to dosing and urine was to be collected for 24 hours after administration of the study drug at the following intervals: 0.1 to 4 hours; 4.1 to 8 hours; 8.1 to 12 hours; and 12.1 to 24 hours."}, "[2]": {"assay": "Steady state pharmacokinetics and safety in patients with MS (Example 5)", "assay_type": "in vivo, human", "description": "This example describes the results of an open-label study to assess the steady state pharmacokinetics of orally administered fampridine (4-aminopyridine) compositions of the present invention in subjects with Multiple Sclerosis. […] Blood samples for pharmacokinetic analysis were collected on Days 1, 7/8, and 14/15 at the following intervals: immediately prior to drug administration (baseline), hourly for the first 8 hours, and 10, 12, and 24 hours post-dose. Additional blood samples were collected 14, 18, and 20 hours post-dose on Day 14, and 30 and 36 hours post-dose on Day 15."}, "[3]": {"assay": "Single dose, dose proportionality pharmacokinetics and safety in patients with multiple sclerosis (Example 4)", "assay_type": "in vivo, human", "description": "This example details the pharmacokinetic properties of Fampridine-SR in tablets of the present invention administered to patients with multiple sclerosis. Plasma samples were analyzed for fampridine using a validated LC/MS/MS assay with a sensitivity of 2 ng/mL. Noncompartmental pharmacokinetic parameter values were calculated using standard methodology.\nThis was an open-label, multi-center, dose proportionality study of orally administered fampridine in patients with multiple sclerosis. Single doses of fampridine were to be given in escalating doses (5 mg, 10 mg, 15 mg, and 20 mg) with at least a four-day interval between administration of each dose of drug. Safety evaluations were to be performed during the 24 hour period following administration of fampridine and blood samples were to be taken at the following times to determine pharmacokinetic parameters: hour 0 (pre-dose), hours 1-8, and hours 10, 12, 14, 18, and 24.\nTwenty-three subjects received all 4 treatments, and one subject received only 3 treatments; data from all treatments were analyzed. Dose-dependent parameters (e.g., peak plasma concentration and areas-under-the curve) were normalized to a 10 mg dose for among-dose comparisons."}, "[4]": {"assay": "Multiple oral dose pharmacokinetics in patients with SCI (Example 3)", "details": "both sexes, human, in vivo", "description": "This example details the plasma concentration of different dosage tablets of a aminopyridine in compositions of the present invention administered to patients with spinal cord injury. Pharmacokinetic results are presented for the subset of 11 patients who completed all dose levels. […] The time of the peak and the plasma elimination half-lives were independent of dose. […] The […] of fampridine ranged from 5.7 to 6.9 hours. There were no apparent differences between males and females."}, "[5]": {"details": "single doses 10-25 mg, patients with chronic incomplete SCI"}, "[6]": {"details": "20 mg twice daily for two weeks, patients with MS"}, "[7]": {"details": "all doses 5-20 mg, mean and 95% confidence interval, patients with MS"}}}
{"smiles": "Nc1ccncc1", "note": "[fampridine, 4-aminopyridine]", "values": [{"measurement": "Cmax", "setting": "[1]; 25 mg single dose, fasted, patients with chronic incomplete SCI", "value": 67.4, "unit": "ng/mL"}, {"measurement": "time of peak concentration (mean tmax) post-dose, over dose levels", "setting": "[1]; human, in vivo", "value": "3 to 4", "unit": "h"}, {"measurement": "Cmax", "setting": "[1]; human, in vivo, 10 mg", "value": 27.7, "unit": "ng/mL"}, {"measurement": "AUC0-24h as percentage of AUC0-∞", "setting": "[1]; [5]", "value": "at least 92%"}, {"measurement": "mean plasma half-life (t1/2), independent of dose", "setting": "[1]; [5]", "value": "approximately 6 hours"}, {"measurement": "changes in corrected QT intervals or QRS amplitudes", "setting": "[2]; [6]", "value": "no apparent clinically significant changes"}, {"measurement": "changes in mean clinical laboratory values, vital signs, or physical examination findings from baseline to last visit", "setting": "[2]; [6]", "value": "no clinically significant changes"}, {"measurement": "most common treatment-related adverse event", "setting": "[2]; [6]", "value": "Dizziness"}, {"measurement": "other treatment-related adverse events", "setting": "[2]; [6]", "value": "nausea, ataxia, insomnia, and tremor"}, {"measurement": "tolerability", "setting": "[2]; 20 mg/dose twice daily for two weeks, subjects with multiple sclerosis", "value": "well tolerated"}, {"measurement": "terminal half-life", "setting": "[3]; [7]", "value": "5.47 (5.05, 5.89) h"}, {"measurement": "terminal rate constant", "setting": "[3]; [7]", "value": "0.14 (0.13, 0.15) h^−1"}, {"measurement": "area-under-the-concentration-time curve (normalized to a 10 mg dose)", "setting": "[3]; human, in vivo", "value": "254 (238, 270) ng-h/ml"}, {"measurement": "clearance", "setting": "[3]; human, in vivo", "value": 637, "unit": "mL/min"}, {"measurement": "differences between pharmacokinetic parameters (AUC, Cmax, t1/2) normalized to the 10.0 mg dose", "setting": "[3]; human, in vivo", "value": "no significant differences"}, {"measurement": "extrapolated area-under-the-concentration-time curve (normalized to a 10 mg dose)", "setting": "[3]; human, in vivo", "value": "284 (266, 302) ng-h/ml"}, {"measurement": "observed peak plasma fampridine concentration (normalized to a 10 mg dose)", "setting": "[3]; human, in vivo", "value": "24.12 (23.8, 26.6) ng/ml"}, {"measurement": "tolerability", "setting": "[3]; single doses 5-20 mg, patients with MS", "value": "well tolerated"}, {"measurement": "Tmax", "setting": "[4]", "value": "2.2 to 3", "unit": "h"}, {"measurement": "half-life", "setting": "[4]", "value": "342 to 414", "unit": "min"}, {"measurement": "Cmax", "setting": "[4]; po, 60 mg", "value": 152, "unit": "ng/mL"}]}
